Reference: publication PMC10218109, “Old Drug, New Delivery Strategy: MMAE Repackaged” (International Journal of Molecular Sciences, 2023)

Assays:
[1] = molecular target: T1, prostate specific membrane antigen (PSMA) (Homo sapiens, UniProt Q04609); assay: competitive radioligand binding on PSMA-positive LNCaP cells vs […]Ga-PSMA-10; assay type: cell-based
T1 construct: gene FOLH1

[2] = molecular target: T1, prostate specific membrane antigen (PSMA); assay: competitive radioligand binding on PSMA-positive LNCaP cells (reference ligand); assay type: cell-based

T1 sequence (Q04609 whole entry): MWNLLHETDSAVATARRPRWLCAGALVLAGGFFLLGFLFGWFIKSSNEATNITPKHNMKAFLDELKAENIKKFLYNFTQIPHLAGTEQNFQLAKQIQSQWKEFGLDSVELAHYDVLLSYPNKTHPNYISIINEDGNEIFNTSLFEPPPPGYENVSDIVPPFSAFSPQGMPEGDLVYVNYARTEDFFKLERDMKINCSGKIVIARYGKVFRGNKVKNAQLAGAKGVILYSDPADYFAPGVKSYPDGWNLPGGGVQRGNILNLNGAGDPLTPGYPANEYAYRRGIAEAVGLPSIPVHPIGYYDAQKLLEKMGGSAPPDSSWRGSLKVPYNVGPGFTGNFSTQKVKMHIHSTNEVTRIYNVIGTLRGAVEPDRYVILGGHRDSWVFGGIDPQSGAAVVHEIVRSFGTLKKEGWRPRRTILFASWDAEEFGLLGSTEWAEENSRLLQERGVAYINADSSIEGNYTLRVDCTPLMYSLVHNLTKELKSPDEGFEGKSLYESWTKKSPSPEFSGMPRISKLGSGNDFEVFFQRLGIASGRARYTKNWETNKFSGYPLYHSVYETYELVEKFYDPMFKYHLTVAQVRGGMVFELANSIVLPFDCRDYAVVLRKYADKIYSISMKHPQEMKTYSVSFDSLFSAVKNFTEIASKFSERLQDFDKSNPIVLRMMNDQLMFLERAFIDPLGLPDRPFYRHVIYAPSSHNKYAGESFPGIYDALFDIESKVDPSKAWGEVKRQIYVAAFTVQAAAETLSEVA

NC[C@H]1CC[C@H](C(=O)N[C@@H](Cc2ccc3ccccc3c2)C(=O)NCCCC[C@H](NC(=O)N[C@@H](CCC(=O)O)C(=O)O)C(=O)O)CC1 [KuE-617]
IC50 [1]: 21.5 ± 1.9 nM

O=C(O)CCc1ccc(O)c(CN(CCN(CC(=O)O)Cc2cc(CCC(=O)NCCCCCC(=O)NCCCC[C@H](NC(=O)N[C@@H](CCC(=O)O)C(=O)O)C(=O)O)ccc2O)CC(=O)O)c1 [PSMA-11]
IC50 [2]: 17.4 ± 1.6 nM

O=C(O)CC[C@H](NC(=O)N[C@@H](CCCCNC(=O)[C@H](Cc1ccc2ccccc2c1)NC(=O)[C@H]1CC[C@H](CNC(=O)CN2CCN(CC(=O)O)CCN(CC(=O)O)CCN(CC(=O)O)CC2)CC1)C(=O)O)C(=O)O [PSMA-617]
IC50 [2]: 15.1 ± 3.8 nM
